Laboratory results from patent US4613695A, “N-nitroso compounds and compositions containing such compounds” (Aktiebolaget Leo, priority 1982, dated 1986).
Like-named read-outs stand apart in the source and are kept apart here.

Columns and labels:
[1] = system: Walker carcinosarcoma 256; assay: Walker carcinosarcoma 256 tumour growth inhibition (single p.o. dose); type: in vivo, Female Sprague Dawley rats; settings: for ED50: Rattus norvegicus, po; for T.I. LD50/ED50: therapeutic index LD50/ED50; for T.I. LD50/ED50 / activity in the foregoing test (Walker carcinosarcoma 256): p.o.; for activity in the foregoing test (Walker carcinosarcoma 256): dose of 8 mg/kg, preliminary experiments
Description: (§1) A therapeutic index is an indication of the therapeutic usefulness of a compound, and such an index may be defined in various ways. One type of therapeutic index commonly used is the ratio LD50/ED50, wherein LD50 is the dose that causes a 50 percent lethality, and ED50 is the dose that causes a 50 percent reduction of tumour size. Another type of therapeutic index, useful in evaluation of increasing survival time, is the ratio between maximum and minimum effective dose. Both these types of therapeutic indexes are used and given in the experimental results below.
(§2) The manner of administration of the compounds is by the oral (p. o.) route in each case.
(§3) Experimental animals: Female Sprague Dawley rats
(§4) Tumour implants: Tumour pieces with 2-3 mm diameter, implanted subcutaneously
(§5) Therapy: The compound is administered p. o. once on the day after the implantation
Termination: The animals are killed on the 9th day after implantation
(§6) Evaluation: Weight of tumour is determined in test animals and compared with those of control animals. For each compound the LD50 and ED50 dose (as defined above) are determined. The therapeutic index, T. I., (LD50/ED50) is calculated.

in vivo = settings: rat, po
Description: as §1, §2, §3, §4, §5, §6

Lymphatic leukemia L1210 = Lymphatic leukemia L1210 survival test (survival time increase, long term survival, cure potential); type: in vivo, Female BDF1 mice; settings: for minimal effective dose: Mus musculus, L1210, po; for T.I.s (long term survival; max.effect.dose/min.effect.dose): long term survival T·100/To >20%; for T.I.s = max.effect.dose/min.effect.dose: survival time increase, t·100/c ≥125%; for Dose or dose range for cure: ≥90% long term survivors on day 60; for median survival time percent of control: dose of 125 mg/kg, p.o., called significant activity
Description: The experimental design and interpretation of the results are in accordance with the standards set by the CCNSC (see reference (16)) and by the DR&D (see reference (17)).
Experimental animals: Female BDF1 mice
Tumour implants: 10^5 tumour cells implanted intraperitoneally (i. p.)
Therapy: The compounds were administered p. o. once on the day following the implantation.
Termination: The animals were killed on the 60th day after the implantation. Living animals on the 60th day are termed long term survivors.
(a) Evaluation of therapeutic dose range for survival time increase: Survival times at various dose levels are determined, and the survival time of the test animals (t) is expressed as the percentage of that of the control animals (c):
The maximum effective dose and the minimum effective dose required to achieve t·100/c≥125% are determined, and a therapeutic index as defined below is calculated:
T. I.s =max.effect.dose/min.effect.dose.
(b) Evaluation of therapeutic dose range for long term survival: Long time survival is determined at various dose levels and is expressed as surviving test animals on day 60 (T) as the percentage of that of the total number of test animals (To):
The maximum effective dose and the minimum effective dose to achieve long term survival T·100/To >20% are determined and a therapeutic index, T. I.1 s is calculated:
T. I.1s =max.effect.dose/min.effect.dose.
(c) Evaluation of cure potential: The normal survival time for test animals receiving no therapeutic treatment is 9-11 days. Surviving test animals on the 60th day after implantation showing no sign of tumour presence are regarded as cured animals. Long term survival is determined as under (b) above, and the effective dose or dose range to achieve a long term survival T·100/To ≥90% is determined as an evaluation of the cure potential.

[2] = dose that causes a 50 percent reduction of tumour size, p.o. once, read-out: ED50
[3] = 1440 h, >20% long term survivors on day 60, p.o. once, read-out: Minimum effective dose (long term survival)
[4] = median survival time percent of control ≥ 125%, p.o. once, read-out: Minimum effective dose (survival time increase)
[5] = median survival time percent of control ≥ 125%, p.o. once
[6] = >20% long term survivors on day 60, p.o. once

Row | Compound | minimal effective dose (Lymphatic leukemia L1210; [3]) [mg/kg] | minimal effective dose (Lymphatic leukemia L1210; [4]) [mg/kg] | T.I.s (long term survival; max.effect.dose/min.effect.dose) (Lymphatic leukemia L1210) | Maximum effective dose (survival time increase) (Lymphatic leukemia L1210; [5]) [mg/kg] | T.I.s = max.effect.dose/min.effect.dose (Lymphatic leukemia L1210) | Dose or dose range for cure (Lymphatic leukemia L1210; p.o. once) [mg/kg] | further results
1 | CN(C)S(=O)(=O)CCNC(=O)N(CCCl)N=O [1:1, 1-(2-chloroethyl)-3-/2-(dimethylaminosulfonyl)ethyl/-1-nitrosourea] | 31 | 8 | 2 | 63 | 8 | 31 to 63 | ED50 [1, 2]: 0.25 mg/kg; T.I. LD50/ED50 [1]: 200; LD50 (in vivo): 50 mg/kg
2 | COCCNS(=O)(=O)CCNC(=O)N(CCCl)N=O [1:8, 1-(2-chloroethyl)-3-(2-/2-methoxyethylaminosulfonyl/ethyl)-1-nitrosourea] | 31 | – | 2 | – | – | 31 to 63 | –
3 | CCCCNS(=O)(=O)CCNC(=O)N(CCCl)N=O [1:9, 3-(2-/butylaminosulfonyl/ethyl)-1-(2-chloroethyl)-1-nitrosourea] | 63 | 16 | 2 | 125 | 8 | 63 | –
4 | CC(C)(C)NS(=O)(=O)CCNC(=O)N(CCCl)N=O [1:10, 3-(2-/t-butylaminosulfonyl/ethyl)-1-(2-chloroethyl)-1-nitrosourea] | – | – | – | – | – | – | median survival time percent of control (Lymphatic leukemia L1210): ≥ 125%
5 | O=NN(CCCl)C(=O)NCCS(=O)(=O)NC1CCCCC1 [1:11, 1-(2-chloroethyl)-3-(2-/cyclohexylaminosulfonyl/ethyl)-1-nitrosourea] | 63 | 31 | 2 | 250 | 8 | 125 | –
6 | O=NN(CCCl)C(=O)NCCS(=O)(=O)N(CCO)CCO [1:12, 3-(2-/bis(2-hydroxyethyl)aminosulfonyl/ethyl)-1-(2-chloroethyl)-1-nitrosourea] | – | – | – | – | – | 125 | –
7 | CCCCC(C)NS(=O)(=O)CCNC(=O)N(CCCl)N=O (centres unmarked) [1:13, 1-(2-chloroethyl)-3-(2-/1-methylpentylaminosulfonyl/ethyl)-1nitrosourea] | – | – | – | – | – | – | median survival time percent of control (Lymphatic leukemia L1210): ≥ 125%
8 | CC(C)(CO)NS(=O)(=O)CCNC(=O)N(CCCl)N=O [1:16, 1-(2-chloroethyl)-3-(2-/1,1-dimethyl-2-hydroxyethylaminosulfonyl/ethyl)-1-nitrosourea] | – | – | – | – | – | 250 | –
9 | CN(Cc1ccccc1)S(=O)(=O)CCNC(=O)N(CCCl)N=O [1:17, 3-(2-/N-benzyl-N-methylaminosulfonyl/ethyl)-1-(2-chloroethyl)-1-nitrosourea] | 125 | 63 | 2 | 500 | 8 | – | –
10 | CN(c1ccccc1)S(=O)(=O)CCNC(=O)N(CCCl)N=O [1:18, 1-(2-chloroethyl)-3-(2-/N-methyl-N-phenylaminosulfonyl/ethyl)-1-nitrosourea] | – | – | – | – | – | – | median survival time percent of control (Lymphatic leukemia L1210): ≥ 125%
11 | CON(C)S(=O)(=O)CCNC(=O)N(CCCl)N=O [1:20, 1-(2-chloroethyl)-3-(2-/N-methoxy-N-methylaminosulfonyl/ethyl)-1-nitrosourea] | 63 | 16 | 2 | 125 | 8 | 63 to 125 | –
12 | CN(C)S(=O)(=O)CCCNC(=O)N(CCCl)N=O [1:21, 1-(2-chloroethyl)-3-(3-/dimethylaminosulfonyl/propyl)-1-nitrosourea] | 31 | 8 | 2 | 63 | 8 | 31 to 63 | –
13 | CN(C)S(=O)(=O)CCNS(=O)(=O)CCNC(=O)N(CCCl)N=O [1:23, 1-(2-chloroethyl)-3-(2-/2-(dimethylaminosulfonyl)ethylaminosulfonyl/ethyl)-1-nitrosourea] | 63 | – | 2 | – | – | 125 | –
14 | COCCN(CCS(=O)(=O)N(C)C)C(=O)N(CCCl)N=O [1:48, 1-(2-chloroethyl)-3-(2-methoxyethyl)-3-/2-(dimethylaminosulfonyl)ethyl/-1-nitrosourea] | – | – | – | – | – | – | activity in the foregoing test (Walker carcinosarcoma 256) [1]: significant activity
15 | CCN(C)S(=O)(=O)CCNC(=O)N(CCCl)N=O [1:52, 1-(2-chloroethyl)-3-(2-/N-ethyl-N-methylaminosulfonyl/ethyl)-1-nitrosourea] | 31 | – | 2 | – | – | – | activity in the foregoing test (Walker carcinosarcoma 256) [1]: significant activity
16 | CCCN(CC)S(=O)(=O)CCNC(=O)N(CCCl)N=O [1:53, 1-(2-chloroethyl)-3-(2-/N-ethyl-N-propylaminosulfonyl/ethyl)-1-nitrosourea] | 125 | 31 | 2 | 500 | 16 | 125 to 150 | ED50 [1, 2]: 1.7 mg/kg
17 | CCN(CCS(=O)(=O)N(C)C)C(=O)N(CCCl)N=O [1:54, 1-(2-chloroethyl)-3-(2-/dimethylaminosulfonyl/ethyl)-3-ethyl-1-nitrosourea] | – | – | – | – | – | – | activity in the foregoing test (Walker carcinosarcoma 256) [1]: significant activity; median survival time percent of control (Lymphatic leukemia L1210): ≥ 125%
18 | O=NN(CCCl)C(=O)NC1CCCCC1 [CCNU, 1-(2-chloroethyl)-3-cyclohexyl-1-nitrosourea, reference compound] | – | – | – | – | – | – | ED50 [1, 2]: 1 mg/kg; T.I. LD50/ED50 [1]: 90; LD50 (in vivo): 90 mg/kg
19 | O=P1(N(CCCl)CCCl)NCCCO1 (centres unmarked) [Cyclophosphamide, reference compound] | – | – | – | – | – | – | ED50 [1]: 6 mg/kg; T.I. LD50/ED50 [1]: 30; LD50 (in vivo): 180 mg/kg
20 | CC1CCC(NC(=O)N(CCCl)N=O)CC1 (centres unmarked) [Methyl-CCNU, 1-(2-chloroethyl)-3-(4-methyl-cyclohexyl)-1-nitrosourea, reference compound] | – | 8 | none | 31 | 4 | – | Maximum effective dose (long term survival) (Lymphatic leukemia L1210; [6]): none; Minimum effective dose (long term survival) (Lymphatic leukemia L1210; [6]): none
